{"source": "patent US6800772B2", "about": "“Carboxylic acids and derivatives thereof and pharmaceutical compositions containing them” (Yissum Research Development Company of the Hebrew …, priority 1997, dated 2004)", "key": {"Rats [1]": {"system": "Rats", "experiment": "Experiment I: rats fed chow supplemented with compound for 6 days; plasma lipids, glucose, food intake", "assay_type": "in vivo", "conditions": "0.1% (w/w) in diet", "procedure": "Rats (n=5 for each treatment group) were fed ad libitum on Purina chow for 6 days, the diet being supplemented with 0.1% (w/w) γ,γ′-methyl substituted α,ω-dioic acids of formula (II) (Ex. 1, Ex. 3, Ex. 4) in the diet. The biological effect in vivo was evaluated by following food intake, plasma triglycerides, plasma cholesterol and plasma glucose."}, "Rats [2]": {"system": "Rats", "experiment": "Experiment II: rats fed chow supplemented with compound for 5 days; plasma triglycerides, apo C-III, insulin", "assay_type": "in vivo", "procedure": "(§1) Rats (n=5 for each treatment group) were fed ad libitum on purina chow for 5 days, the diet being supplemented with either γ,γ′-methyl substituted α,ω hexadecanedioic acid (formula (II). Ex. 3) or β,β′-methyl substituted α,ω-hexadecanedioic acid (U.S. Pat. No. 4,634,795) at a dosage of 0.09% (w/w) in the diet. The biological effect in vivo was evaluated by following plasma triglycerides, plasma apolipoprotein(apo)C-III, plasma insulin and the steady state concentrations (Css) of the respective drugs in plasma. Fold efficacy of the γ,γ′-substituted compound (Ex. 3) relative to the β,β′-substituted compound was calculated by normalizing the observed effect by the respective Css attained."}, "Rats [3]": {"system": "Rats", "experiment": "Experiment III: conditions as in Experiment II; plasma lipids, apo C-III, glucose, insulin", "assay_type": "in vivo", "procedure": "as §1\nConditions as in Experiment II using α,α′-methyl-substituted α,ω-tetradecanedioic acid.\nFold efficacy represents the respective effect induced by the α,α′-substituted compound (Ex. 5) relative to that of the β,β′-substituted compound."}, "[4]": {"conditions": "observed effect normalized by respective Css, relative to β,β′-substituted compound"}, "[5]": {"conditions": "rats, 0.09% (w/w) in diet, 5 days"}, "[6]": {"conditions": "effect of α,α′-substituted compound relative to β,β′-substituted compound"}, "[7]": {"conditions": "rats, conditions as in Experiment II"}}}
{"smiles": "CC(C)(CCCCCCCCC(C)(C)CCC(=O)O)CCC(=O)O", "note": "[Ex. 3, 4,4,13,13-Tetramethylhexadecanedioic Acid]", "values": [{"measurement": "Food intake", "setting": "Rats [1]", "result": "19.3 ± 1.1", "unit": "g/day"}, {"measurement": "Plasma cholesterol", "setting": "Rats [1]", "result": "62.4 ± 13.3", "unit": "mg %"}, {"measurement": "Plasma glucose", "setting": "Rats [1]", "result": "138.8 ± 2.7", "unit": "mg %"}, {"measurement": "Plasma triglycerides", "setting": "Rats [1]", "result": "28.8 ± 7.4", "unit": "mg %"}, {"measurement": "Fold efficacy (γ,γ/β,β), plasma apo C-III", "setting": "Rats [2]; [4]", "result": 7.7}, {"measurement": "Fold efficacy (γ,γ/β,β), plasma insulin", "setting": "Rats [2]; [4]", "result": 15.2}, {"measurement": "Fold efficacy (γ,γ/β,β), plasma triglycerides", "setting": "Rats [2]; [4]", "result": 8.2}, {"measurement": "Plasma apo C-III", "setting": "Rats [2]; [5]", "result": "12.0 ± 4.6", "unit": "mg %"}, {"measurement": "Plasma insulin", "setting": "Rats [2]; [5]", "result": "16 ± 6.1", "unit": "µU/mL"}, {"measurement": "Plasma triglycerides", "setting": "Rats [2]; [5]", "result": "19.9 ± 7.4", "unit": "mg %"}]}
{"smiles": "CC(C)(CCCCCCCCCCC(C)(C)CCC(=O)O)CCC(=O)O", "note": "[Ex. 4, 4,4,15,15-Tetramethyloctadecanedioic acid]", "values": [{"measurement": "melting point", "result": "71 to 72", "unit": "°C"}, {"measurement": "Food intake", "setting": "Rats [1]", "result": "19.1 ± 1.2", "unit": "g/day"}, {"measurement": "Plasma cholesterol", "setting": "Rats [1]", "result": "56.8 ± 10.8", "unit": "mg %"}, {"measurement": "Plasma glucose", "setting": "Rats [1]", "result": "139.0 ± 9.0", "unit": "mg %"}, {"measurement": "Plasma triglycerides", "setting": "Rats [1]", "result": "29.3 ± 10.4", "unit": "mg %"}]}
{"smiles": "CC(C)(CCCCCCC(C)(C)CCC(=O)O)CCC(=O)O", "note": "[Ex. 1, 4,4,11,11-Tetramethyltetradecanedioic Acid]", "values": [{"measurement": "melting point", "result": "88 to 89", "unit": "°C"}, {"measurement": "Food intake", "setting": "Rats [1]", "result": "18.6 ± 2.1", "unit": "g/day"}, {"measurement": "Plasma cholesterol", "setting": "Rats [1]", "result": "64.1 ± 12.0", "unit": "mg %"}, {"measurement": "Plasma glucose", "setting": "Rats [1]", "result": "127.8 ± 6.6", "unit": "mg %"}, {"measurement": "Plasma triglycerides", "setting": "Rats [1]", "result": "24.8 ± 3.9", "unit": "mg %"}]}
{"smiles": "CC(C)(CCCCCCCCCCCCC(C)(C)C(=O)O)C(=O)O", "note": "[Ex. 6, 2,2,15,15-Tetramethylhexadecanedioic Acid]", "values": [{"measurement": "Fold efficacy (α,α/β,β), plasma apo C-III", "setting": "Rats [3]; [6]", "result": 3.7}, {"measurement": "Fold efficacy (α,α/β,β), plasma cholesterol", "setting": "Rats [3]; [6]", "result": 1.2}, {"measurement": "Fold efficacy (α,α/β,β), plasma glucose", "setting": "Rats [3]; [6]", "result": 1.1}, {"measurement": "Fold efficacy (α,α/β,β), plasma insulin", "setting": "Rats [3]; [6]", "result": 1.0}, {"measurement": "Fold efficacy (α,α/β,β), plasma triglycerides", "setting": "Rats [3]; [6]", "result": 1.78}, {"measurement": "Plasma apo C-III", "setting": "Rats [3]; [7]", "result": "17 ± 14", "unit": "mg %"}, {"measurement": "Plasma cholesterol", "setting": "Rats [3]; [7]", "result": "69.5 ± 9.7", "unit": "mg %"}, {"measurement": "Plasma glucose", "setting": "Rats [3]; [7]", "result": "104 ± 4", "unit": "mg %"}, {"measurement": "Plasma insulin", "setting": "Rats [3]; [7]", "result": "24.2 ± 7.3", "unit": "µU/mL"}, {"measurement": "Plasma triglycerides", "setting": "Rats [3]; rats, conditions as in Experiment II (0.09% w/w in diet, 5 days)", "result": "44.5 ± 14.0", "unit": "mg %"}]}
